Each molecule was assayed against T1, hTLR9 (Homo sapiens, UniProt Q9NR96) (assay: HEK293-Blue-hTLR-9 cells assay (SEAP reporter, ODN2006 stimulation)). Conditions: HEK293-Blue-hTLR9 cells, ODN2006, 20 hrs; 0.032 is the lowest tested concentration; read-out: HEK/hTLR9 IC50.
T1 sequence (Q9NR96 26-1032): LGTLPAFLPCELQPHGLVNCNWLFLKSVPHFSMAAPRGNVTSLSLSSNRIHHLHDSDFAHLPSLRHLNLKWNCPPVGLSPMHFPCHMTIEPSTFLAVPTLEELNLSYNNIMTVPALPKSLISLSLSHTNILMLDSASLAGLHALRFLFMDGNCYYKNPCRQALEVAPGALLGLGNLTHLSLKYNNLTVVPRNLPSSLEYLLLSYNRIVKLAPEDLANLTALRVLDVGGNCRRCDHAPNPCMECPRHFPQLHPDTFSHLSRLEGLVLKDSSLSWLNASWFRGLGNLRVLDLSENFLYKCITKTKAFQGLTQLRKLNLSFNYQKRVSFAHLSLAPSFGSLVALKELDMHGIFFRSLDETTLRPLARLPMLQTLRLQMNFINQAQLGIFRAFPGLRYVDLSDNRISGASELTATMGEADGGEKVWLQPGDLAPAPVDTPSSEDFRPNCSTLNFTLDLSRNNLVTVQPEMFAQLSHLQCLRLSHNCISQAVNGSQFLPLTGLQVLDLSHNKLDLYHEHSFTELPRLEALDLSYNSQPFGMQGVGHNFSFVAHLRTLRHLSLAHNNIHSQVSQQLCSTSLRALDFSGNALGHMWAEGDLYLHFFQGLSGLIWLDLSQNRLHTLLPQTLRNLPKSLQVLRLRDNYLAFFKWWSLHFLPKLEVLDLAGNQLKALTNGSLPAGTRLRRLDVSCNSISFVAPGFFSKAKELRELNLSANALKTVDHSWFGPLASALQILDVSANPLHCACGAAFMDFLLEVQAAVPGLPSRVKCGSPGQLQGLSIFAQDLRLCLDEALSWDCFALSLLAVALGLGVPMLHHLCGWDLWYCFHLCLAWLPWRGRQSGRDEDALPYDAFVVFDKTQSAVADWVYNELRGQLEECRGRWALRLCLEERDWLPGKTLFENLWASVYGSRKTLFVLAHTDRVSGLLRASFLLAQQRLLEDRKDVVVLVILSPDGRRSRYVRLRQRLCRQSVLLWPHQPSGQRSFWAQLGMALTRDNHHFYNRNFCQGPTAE
Format: cell-based
Method: The following tests were carried out in order to determine the activity of the compounds of formula (I) or (Ia) in HEK293-Blue-hTLR-7/8/9 cells assay.
HEK293-Blue-hTLR-9 cells assay:
A stable HEK293-Blue-hTLR-9 cell line was purchased from InvivoGen (Cat.#: hkb-htlr9, San Diego, California, USA). These cells were originally designed for studying the stimulation of human TLR9 by monitoring the activation of NF-κB. A SEAP (secreted embryonic alkaline phosphatase) reporter gene was placed under the control of the IFN-β minimal promoter fused to five NF-κB and AP-1-binding sites. The SEAP was induced by activating NF-κB and AP-1 via stimulating HEK-Blue hTLR9 cells with TLR9 ligands. Therefore the reporter expression was declined by TLR9 antagonist under the stimulation of a ligand, such as ODN2006 (Cat.#: tlrl-2006-1, Invivogen, San Diego, California, USA), for incubation of 20 hrs. The cell culture supernatant SEAP reporter activity was determined using QUANTI-Blue™ kit (Cat.#: rep-qb1, Invivogen, San Diego, California, USA) at a wavelength of 640 nm, a detection medium that turns purple or blue in the presence of alkaline phosphatase.
HEK293-Blue-hTLR9 cells were incubated at a density of 250,000∼450,000 cells/mL in a volume of 170 µL in a 96-well plate in Dulbecco's Modified Eagle's medium (DMEM) containing 4.5 g/L glucose, 50 U/mL penicillin, […], […], 2 mM L-glutamine, 10% (v/v) heat-inactivated fetal bovine serum with addition of 20 µL test compound in a serial dilution in the presence of final DMSO at 1% and 10 µL of 20uM ODN2006 in above DMEM, perform incubation under 37 °C in a CO2 incubator for 20 hrs. Then 20 µL of the supernatant from each well was incubated with 180 µL Quanti-blue substrate solution at 37 °C for 2 hrs and the absorbance was read at 620∼655 nm using a spectrophotometer. The signalling pathway that TLR9 activation leads to downstream NF-κB activation has been widely accepted, and therefore similar reporter assay was modified for evaluating TLR9 antagonist.

Compound | IC50 [nM]
C[C@@H]1CN(c2ccc(C#N)c3nccnc23)C[C@H](CN2Cc3cnc(N4CCNCC4)cc3C2)O1 [Example 60, 8-[(2R,6S)-2-methyl-6-[(6-piperazin-1-yl-1,3-dihydropyrrolo[3,4-c]pyridin-2-yl)methyl]morpholin-4-yl]quinoxaline-5-carbonitrile] | 46
C[C@@H]1CN(c2ccc3c(c2)CN(C[C@H]2CN(c4ccc(C#N)c5ncccc45)C[C@@H](C)O2)C3)CCN1 [Example 62, 5-[(2R,6S)-2-methyl-6-[[5-[(3R)-3-methylpiperazin-1-yl]isoindolin-2-yl]methyl]morpholin-4-yl] quinoline-8-carbonitrile] | 62
C[C@@H]1CN(c2ccc(C#N)c3ncccc23)C[C@H](CN2Cc3ccc(N4CCN[C@@H](C)C4)cc3C2)O1 [Example 64, 5-[(2R,6S)-2-methyl-6-[[5-[(3S)-3-methylpiperazin-1-yl]isoindolin-2-yl]methyl]morpholin-4-yl]quinoline-8-carbonitrile] | 75
C[C@@H]1CN(c2ccc3c(c2)CN(C[C@H]2CN(c4ccc(C#N)c5nccnc45)C[C@@H](C)O2)C3)CCN1 [Example 65, 8-[(2R,6S)-2-methyl-6-[[5-[(3R)-3-methylpiperazin-1-yl]isoindolin-2-yl]methyl]morpholin-4-yl] quinoxaline-5-carbonitrile] | 59
C[C@@H]1CN(c2ccc(C#N)c3nccnc23)C[C@H](CN2Cc3ccc(N4CCN[C@@H](C)C4)cc3C2)O1 [Example 66, 8-[(2R,6S)-2-methyl-6-[[5-[(3S)-3-methylpiperazin-1-yl]isoindolin-2-yl]methyl]morpholin-4-yl]quinoxaline-5-carbonitrile] | 83
COC(=O)C1CN(c2ccc3c(c2)CN(C[C@H]2CN(c4ccc(C#N)c5ncccc45)C[C@@H](C)O2)C3)CCN1 (stereo partly drawn) [Example 67, Methyl 4-[2-[[(2S,6R)-4-(8-cyano-5-quinolyl)-6-methyl-morpholin-2-yl]methyl]isoindolin-5-yl] piperazine-2-carboxylate] | 221
C[C@@H]1CN(c2ccc(C#N)c3ncccc23)C[C@H](CN2Cc3cc(N4CCN(C)CC4)cc(F)c3C2)O1 [Example 69, 5-[(2S,6R)-2-[[4-fluoro-6-(4-methylpiperazin-1-yl)isoindolin-2-yl]methyl]-6-methyl-morpholin-4-yl]quinoline-8-carbonitrile] | 81
C[C@@H]1CN(c2ccc3c(c2)CN(C[C@H]2CN(c4ccc(C#N)c5ncccc45)C[C@@H](C)O2)C3)C[C@H](C)N1 [Example 71, 5-[(2R,6S)-2-methyl-6-[[5-[(3R,5S)-3,5-dimethylpiperazin-1-yl]isoindolin-2-yl]methyl]morpholin-4-yl]quinoline-8-carbonitrile] | 73
C[C@@H]1CN(c2ccc(C#N)c3ncccc23)C[C@H](CN2Cc3ccc(N4CC5COCC(C4)N5)cc3C2)O1 [Example 72, 5-[(2R,6S)-2-methyl-6-[[5-(3-oxa-7,9-diazabicyclo[3.3.1]nonan-7-yl)isoindolin-2-yl]methyl]morpholin-4-yl]quinoline-8-carbonitrile] | 66
C[C@@H]1CN(c2ccc(C#N)c3ncccc23)C[C@H](CN2Cc3ccc(N4CCNCC4CO)cc3C2)O1 (stereo partly drawn) [Example 73, 5-[(2S,6R)-2-[[5-[2-(hydroxymethyl)piperazin-1-yl]isoindolin-2-yl]methyl]-6-methyl-morpholin-4-yl]quinoline-8-carbonitrile] | 60
C[C@@H]1CN(c2ccc(C#N)c3ncccc23)C[C@H](CN2Cc3ccc(CN4CCCCC4)cc3C2)O1 [Example 74, 5-[(2R,6S)-2-methyl-6-[[5-(1-piperidylmethyl)isoindolin-2-yl]methyl]morpholin-4-yl]quinoline-8-carbonitrile] | 73
C[C@@H]1CN(c2ccc(C#N)c3ncccc23)C[C@H](CN2Cc3ccc(N4CCNCC4C(F)F)cc3C2)O1 (stereo partly drawn) [Example 76, 5-[(2S,6R)-2-[[5-[2-(difluoromethyl)piperazin-1-yl]isoindolin-2-yl]methyl]-6-methyl-morpholin-4-yl]quinoline-8-carbonitrile] | 190
C[C@@H]1CN(c2ccc(C#N)c3ncccc23)C[C@H](CN2Cc3ccc(N4CC(N)C4)cc3C2)O1 [Example 77, 5-[(2S,6R)-2-[[5-(3-aminoazetidin-1-yl)isoindolin-2-yl]methyl]-6-methyl-morpholin-4-yl]quinoline-8-carbonitrile] | 239
CC1CNCCN1c1ccc2c(c1)CN(C[C@H]1CN(c3ccc(C#N)c4ncccc34)C[C@@H](C)O1)C2 (stereo partly drawn) [Example 78, 5-[(2R,6S)-2-methyl-6-[[5-(2-methylpiperazin-1-yl)isoindolin-2-yl]methyl]morpholin-4-yl] quinoline-8-carbonitrile] | 163

Second part, the molecule after the results:

IC50 [nM] | Compound
66 | C[C@@H]1CN(c2ccc(C#N)c3ncccc23)C[C@H](CN2Cc3cc(N4CCNCC4)cc(F)c3C2)O1 [Example 59, 5-[(2S,6R)-2-[(4-fluoro-6-piperazin-1-yl-isoindolin-2-yl)methyl]-6-methyl-morpholin-4-yl]quinoline-8-carbonitrile]
59 | C[C@@H]1CN(c2ccc(C#N)c3ncccc23)C[C@H](CN2Cc3cnc(N4CCNCC4)cc3C2)O1 [Example 61, 5-[(2R,6S)-2-methyl-6-[(6-piperazin-1-yl-1,3-dihydropyrrolo[3,4-c]pyridin-2-yl)methyl]morpholin-4-yl]quinoline-8-carbonitrile]
120 | C[C@@H]1CN(c2ccc(C#N)c3ncccc23)C[C@H](CN2Cc3cnc(N4CCNCC4)nc3C2)O1 [Example 63, 5-[(2R,6S)-2-methyl-6-[(2-piperazin-1-yl-5,7-dihydropyrrolo[3,4-d]pyrimidin-6-yl)methyl]morpholin-4-yl]quinoline-8-carbonitrile]
< 32 | C[C@@H]1CN(c2ccc(C#N)c3ncccc23)C[C@H](CN2CCc3cc(N4CCNCC4)ncc3C2)O1 [Example 70, 5-[(2R,6S)-2-methyl-6-[(6-piperazin-1-yl-3,4-dihydro-1H-2,7-naphthyridin-2-yl)methyl]morpholin-4-yl]quinoline-8-carbonitrile]
55 | C[C@@H]1CN(c2ccc(C#N)c3ncccc23)C[C@H](CN2Cc3ccc(N4CCNCC4)cc3C(O)C2)O1 (stereo partly drawn) [Example 75, 5-[(2S,6R)-2-[(4-hydroxy-6-piperazin-1-yl-3,4-dihydro-1H-isoquinolin-2-yl)methyl]-6-methyl-morpholin-4-yl]quinoline-8-carbonitrile]
< 32 | C[C@@H]1CN(c2ccc(C#N)c3ncccc23)C[C@H](CN2CCc3nc(N4CCNCC4)ccc3C2)O1 [Example 79, 5-[(2R,6S)-2-methyl-6-[(2-piperazin-1-yl-7,8-dihydro-5H-1,6-naphthyridin-6-yl)methyl]morpholin-4-yl]quinoline-8-carbonitrile]
56 | C[C@@H]1CN(c2ccc(C#N)c3ncccc23)C[C@H](CN2Cc3ccc(N4CCNCC4)nc3C2)O1 [Example 80, 5-[(2R,6S)-2-methyl-6-[(2-piperazin-1-yl-5,7-dihydropyrrolo[3,4-b]pyridin-6-yl)methyl]morpholin-4-yl]quinoline-8-carbonitrile]
